Results published in patent US10702604B2, “Lipid nanocapsules comprising a retinoid, nanodispersion and composition containing the same, process for preparing the same and use thereof in dermatology” (GALDERMA RESEARCH & DEVELOPMENT, priority 2012, dated 2020).

Legend:
ear of BALB/C mice = test: Tolerance study: pro-inflammatory effect after single application to the mouse ear (ear thickness); assay type: in vivo; conditions: single topical application, 0.01% in acetone, 20 μl
Protocol: The aim of the study is to evaluate the effect of a composition according to the invention on the pro-inflammatory activity associated with retinoids in general.
A single application of 20 μl of the test products was administered to the ear of the mice on day 1. Clinical observations and measurements of the mouse ear thickness, directly linked to inflammation, are performed from day 2 up to day 12.

[1] = Chemical stability of compound A in gel compositions (HPLC-UV assay); assay type: physicochemical; conditions: 4° C., room temperature and 40° C., up to 6 to 7 months
Protocol: Compositions 1 and 2 according to Example 3 were placed under various stability conditions: 4° C., room temperature and 40° C., and were monitored for 6 to 7 months. At each stability checkpoint, compound A was assayed by HPLC-UV.

[2] = Chemical stability of compound A in oily phases (HPLC-UV); assay type: physicochemical
Protocol: The stability of the active agent was evaluated by liquid chromatography coupled to a UV detector (HPLC-UV).

[3] = Maximum solubility of compound A in various oily phases; assay type: physicochemical
[4] = in caprylic/capric acid triglycerides (Miglyol 812N)
[5] = in diisopropyl adipate (Crodamol DA)
[6] = in macrogol oleate (Labrafil M1944CS)
[7] = in propylene glycol dicaprylate/dicaprate (Myritol PC)
[8] = in propylene glycol monolaurate (Lauroglycol FCC)

Chemical stability of compound A in the gel compositions [1]: chemically stable | Stability [2, 4]: 6 months RT/40 °C | Stability [2, 5]: 6 months RT/40 °C | Stability [2, 6]: 6 months RT/40 °C | Stability ([2]; in octyldodecanol (Eutanol G)): Unstable | Stability [2, 7]: Unstable | Stability ([2]; in propylene glycol monocaprylate (Capryol 90), RT = room temperature): 6 months RT/40 °C | Stability [2, 8]: 6 months RT/40 °C | Stability ([2]; in sweet almond oil): 6 months RT/40 °C | Maximum solubility [3, 4]: 0.019 % m/m | Maximum solubility [3, 5]: 0.297 % m/m | Maximum solubility [3, 6]: 0.156 % m/m | Maximum solubility ([3]; in mineral oil): 0.0001 % m/m | Maximum solubility ([3]; in octyldodecanol (Eutanol G)): 0.137 % m/m | Maximum solubility [3, 7]: 0.069 % m/m | Maximum solubility ([3]; in propylene glycol monocaprylate (Capryol 90)): 0.802 % m/m | Maximum solubility [3, 8]: 0.296 % m/m | Maximum solubility ([3]; in sweet almond oil): 0.011 % m/m
Structure (SMILES): CC(C)(C)c1cc(-c2cc(-c3ccc(C(=O)O)cc3)ccc2OCCO)ccc1N1CCCC1 [Compound A, 3″-tert-butyl-4′-(2-hydroxyethoxy)-4″-pyrrolidin-1-yl-[1,1′;3′,1″]-terphenyl-4-carboxylic acid]
Increase in the thickness of the mouse ear versus acetone alone (ear of BALB/C mice): 59%
